The values below are quoted from earlier work in article PMC9297971 (Chembiochem, 2021).

The test system of the data set is HIV-1. Conditions: read-out: IC50 of clinically used T20; ref 15b, 36.

A word on the IC50: it is the midpoint of a concentration-inhibition curve. Enfuvirtide [T20]: the IC50 was 24 to 36 nM.
